Values of other authors in patent US20160030469A1, “Human End Uses for a Gas Transporting Rheological Medium” (priority 2014, published 2016).

Conditions: equilibrium with air (pO2=0.21) at 77° F.

SMILES: O=O [oxygen]
- solubility limit of oxygen in water: approximately 8.3 mg/l
